The text below walks through data of paper PMC8041284, “Tunable Methacrylamides for Covalent Ligand Directed Release Chemistry” (Journal of the American Chemical Society, 2021).

This assay addresses BTK (Homo sapiens, UniProt Q06187). In words: biochemical.
Setting [1] is: read-out: BTK inhibition (%), 0.75 uM BTK, […] probe 3l, 15 min preincubation.

Like-named read-outs stand apart in the source and are kept apart here. *1 amine or outer side, *2 acyl side, *3 side chain or, on linkers, in order; H or OH if unused. Where a SMILES comes first, the peptide text is derived from it. Bridges are numbered along the chain shown (N, C = ends). [ ]: non-standard residue; d: D form. The star is where a group is joined. hTyr(3S-OH,4S-OH,3'-OSO3H) = N[C@H](C(=O)O)[C@H](O)[C@@H](O)c1ccc(O)c(OS(=O)(=O)O)c1; Orn(4R-OH,5R-OH) = O=C([C@H](C[C@@H](O)[C@@H](O)N[*:3])N[*:1])[*:2]; Pro(3S-OH,4S-Me) = C[C@H]1CN[C@H](C(=O)O)[C@H]1O; X1 = CCCCCOc1ccc(-c2cc(-c3ccc(C(=O)*)cc3)no2)cc1; Gln(3R-OH) = NC(=O)C[C@@H](O)[C@H](N)C(=O)O; Hyp = O=C(O)[C@@H]1C[C@@H](O)CN1; Nle = CCCC[C@H](N)C(=O)O

Sequence of BTK (Q06187 402-655 limits assumed): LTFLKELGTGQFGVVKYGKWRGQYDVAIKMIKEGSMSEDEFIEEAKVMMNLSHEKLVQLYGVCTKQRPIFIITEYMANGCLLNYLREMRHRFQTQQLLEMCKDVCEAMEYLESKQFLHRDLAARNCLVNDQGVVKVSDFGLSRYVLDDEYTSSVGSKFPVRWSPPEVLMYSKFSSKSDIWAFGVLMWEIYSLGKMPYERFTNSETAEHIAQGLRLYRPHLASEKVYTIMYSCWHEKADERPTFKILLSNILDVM

As a reminder, the inhibition is the drop in the measured response relative to a control, in per cent. With `CCn1cc(NC(=S)Nc2cc(Cl)ccc2OC)c(C(N)=O)n1` [PCM-0215323], the inhibition at 10 µM under setting [1] was 0%.
Take `Cc1ccc2nc(NC(=O)CSc3nc4c(c(=O)n3-c3ccccc3)SCC4)sc2c1` [PCM-0215324]: the inhibition at 10 µM under setting [1] was determined as 10.2%.
Still for that read-out and setting: to `CCCc1ccc(OCC(=O)N(Cc2nc(-c3cccnc3)no2)C(C)C)cc1` [PCM-0215326] belongs -16.2%.
Turning to `COCCOc1nc(-c2ccc(Cl)c(Cl)c2)n(-c2ccc(NC(=O)CCl)cc2)n1` [PCM-0215327], under setting [1], the inhibition at 10 µM is 106%.
In the case of `CC(C)C[C@H](CC(=O)NO)C(=O)N[C@@H](Cc1ccc2ccccc2c1)C(=O)N[C@@H](C)C(=O)NCCN` [PCM-0215328], under setting [1], the inhibition at 10 µM was determined as 18.6%.
Still for that read-out and setting: as for `Cc1sc2c(c1C)C(c1ccc(Cl)cc1)=N[C@@H](CC(N)=O)c1nnc(C)n1-2` [PCM-0215329], the figure is -14.7%; as for `Cc1cc([N+](=O)[O-])ccc1NS(=O)(=O)c1cc(Cl)ccc1Cl` [PCM-0215330], 11.6%; as for `CC(=O)N[C@@H](CC(C)C)C(=O)N[C@@H](CC(C)C)C(=O)N[C@H](C=O)CCCN=C(N)N` [PCM-0215331], 9.3%.
Still for that read-out and setting: as for `COc1ccc(C[C@H](N)C(=O)N[C@H]2[C@@H](O)[C@H](n3cnc4c(N(C)C)ncnc43)O[C@@H]2CO)cc1` [PCM-0215332], the figure is -3.1%.
For `O=C(NCC1(c2nc(-c3ccccc3)cs2)CCOCC1)c1cccc(-c2noc(C(F)(F)F)n2)c1` [PCM-0215333], under setting [1], the inhibition at 10 µM was -9.3%.
As for `Cc1nc(N(C)C(=O)Cc2ccc(-c3ccccn3)cc2)sc1S(N)(=O)=O` [PCM-0215334], under setting [1], the inhibition at 10 µM is 0.8%.
Take `O=c1[nH]c([C@@H]2CCCN2)nc2c1oc1ccc(Cl)cc12` [PCM-0215335]: the inhibition at 10 µM under setting [1] was -0.9%.
The same measure, in the same setting: as for `Cc1cc(C)c(S(=O)(=O)n2cc(C)cc2C)c(C)c1` [PCM-0215336], the figure is -13.1%.
`CCNc1nc(Nc2cc(F)c(C(=O)N3CCOCC3)cc2OC)ncc1C(F)(F)F` [PCM-0215337]: under setting [1], the inhibition at 10 µM is -9%.
In the case of `CSc1cccc(Nc2ncc3cc(-c4c(Cl)cccc4Cl)c(=O)n(C)c3n2)c1` [PCM-0215338], the inhibition at 10 µM under setting [1] was -18.6%.
Regarding `Cc1cc(-c2nc(-c3ccc(OC(F)(F)F)cc3)no2)nn1Cc1ccnc(N2CCN(C3CC3)CC2)c1` [PCM-0215339], the inhibition at 10 µM under setting [1] is -1.5%.
For the molecule `C=CS(=O)(=O)NC1CCN(C(=O)CNc2cc(I)c(Cl)cc2OC)CC1` [PCM-0215340], under setting [1], the inhibition at 10 µM was 6.2%.
With `CCCCCOc1ccc(-c2cc(-c3ccc(C(=O)N[C@H]4C[C@@H](O)[C@@H](O)NC(=O)[C@@H]5[C@@H](O)[C@@H](C)CN5C(=O)[C@H]([C@H](O)CC(N)=O)NC(=O)[C@H]([C@H](O)[C@@H](O)c5ccc(O)c(OS(=O)(=O)O)c5)NC(=O)[C@@H]5C[C@@H](O)CN5C(=O)[C@H]([C@@H](C)O)NC4=O)cc3)no2)cc1` [PCM-0215341] (X1-[Orn(4R-OH,5R-OH)]T[Hyp][hTyr(3S-OH,4S-OH,3'-OSO3H)][Gln(3R-OH)][Pro(3S-OH,4S-Me)]; lactam 1-C), under setting [1], the inhibition at 10 µM was 3.4%.
Regarding `CO[C@H]1C[C@@H]2CC[C@@H](C)[C@@](O)(O2)C(=O)C(=O)N2CCCC[C@H]2C(=O)O[C@H]([C@H](C)C[C@@H]2CC[C@H](n3cnnn3)[C@H](OC)C2)CC(=O)[C@H](C)/C=C(\C)[C@@H](O)[C@@H](OC)C(=O)[C@H](C)C[C@H](C)/C=C/C=C/C=C/1C` [PCM-0215342], under setting [1], the inhibition at 10 µM worked out at 3.4%.
Regarding `O=C(O)/C(S)=C/c1c[nH]c2ccc(F)cc12` [PCM-0215343], the inhibition at 10 µM under setting [1] stood at 35.5%.
In the case of `Cn1c2ccccc2c2c3c(c4c5ccccc5n(CCC#N)c4c21)CNC3=O` [PCM-0215344], under setting [1], the inhibition at 10 µM turned out to be 5.5%.
Turning to `COc1ccc(N(C(=O)Oc2c(C)cccc2C)c2ccnc(Nc3ccc(N4CCN(C)CC4)cc3)n2)c(OC)c1` [PCM-0215345], for the setting “read-out: BTK inhibition (%)”, the inhibition at 10 µM is 24.1%.
For `Cc1cc(C(N)=O)ccc1-n1c(CCC(=O)O)ccc1-c1ccc(-n2ccnc2)cc1` [PCM-0215346], the inhibition at 10 µM under setting [1] worked out at 6.9%.
`CC(C)C[C@H](NP(=O)(O)O[C@@H]1O[C@@H](C)[C@H](O)[C@@H](O)[C@H]1O)C(=O)N[C@@H](Cc1c[nH]c2ccccc12)C(=O)O` [PCM-0215347]: the inhibition at 10 µM under setting [1] was 14.7%.
Regarding `CC(C)(C)C(=O)Nc1ccc2c(c1)C(=O)C(=O)c1ccccc1-2` [PCM-0215348], the inhibition at 10 µM under setting [1] is 10.8%.
`Cc1[nH]c2ccccc2c1C1=C(NCCc2ccc(F)cc2)C(=O)N(C)C1=O` [PCM-0215349]: under setting [1], the inhibition at 10 µM was 51.7%.
For `c1ccc(Cn2c(-c3ccc(OC[C@H](C4CCNCC4)n4c(-c5ccccc5)nc5ccccc54)cc3)nc3ccccc32)cc1` [PCM-0215350], under setting [1], the inhibition at 10 µM was 86.5%.
On the same count and under the same terms, to `Cc1cc(/C=C2/SC(=S)NC2=O)c(C)n1-c1cccnc1` [PCM-0215351] belongs 10.8%; to `COc1cccc(-c2cc(F)ccc2[C@H]2Cc3nc(N)nc(C)c3C(=O)N2)n1` [PCM-0215352], 2.3%; to `C[C@@H](O)[C@H]1C(=O)N2C(C(=O)[O-])=C(SC3Cn4cnc[n+]4C3)[C@H](C)[C@H]12` (stereo partly drawn) [PCM-0215353], -18.7%.
Turning to `CCC(C)CC(C)CCCCCCCCC(=O)N[C@H]1C[C@@H](O)[C@@H](NCCN)NC(=O)[C@@H]2[C@@H](O)CCN2C(=O)[C@H]([C@H](O)CCN)NC(=O)[C@H]([C@H](O)[C@@H](O)c2ccc(O)cc2)NC(=O)[C@@H]2C[C@@H](O)CN2C(=O)[C@H]([C@@H](C)O)NC1=O` (stereo partly drawn) [PCM-0215354], the inhibition at 10 µM under setting [1] worked out at 11.1%.
For `CCOC(=O)NCCCC(=O)NCCc1ccccc1` [PCM-0215356], under setting [1], the inhibition at 10 µM was -17%.
`CN1CCN(c2ccc(OC(F)(F)F)c(Nc3ncc4c(n3)-c3c(c(C(N)=O)nn3CCO)CC4)c2)CC1` [PCM-0215357]: under setting [1], the inhibition at 10 µM was -26.9%.
Turning to `Cc1cc2c(C(=O)NC[C@H](C)c3ccccc3)c(O)c(O)cc2c(O)c1-c1c(C)cc2c(C(=O)NC[C@H](C)c3ccccc3)c(O)c(O)cc2c1O` [PCM-0215358], the inhibition at 10 µM under setting [1] was 113%.
As to `CNc1nc(Nc2cnn([C@H]3CCN(C4COC4)C[C@@H]3F)c2Cl)ncc1C(F)(F)F` [PCM-0215360], under setting [1], the inhibition at 10 µM was determined as 0%.
As for `O=C(Nc1nc2cccc(-c3ccc(CN4CCS(=O)(=O)CC4)cc3)n2n1)C1CC1` [PCM-0215361], the inhibition at 10 µM under setting [1] turned out to be 31.7%.
Regarding `COC(=O)CC[C@H](NC(=O)[C@H](CC(=O)OC)NC(=O)OCc1ccccc1)C(=O)N[C@H](C(=O)N[C@@H](CC(=O)OC)C(=O)CF)C(C)C` [PCM-0215362], the inhibition at 10 µM under setting [1] was determined as 15.4%.
On to `CC[C@H]1OC(=O)[C@H](C)[C@@H](O[C@H]2C[C@@](C)(OC)[C@@H](O)[C@H](C)O2)[C@H](C)[C@@H](O[C@@H]2O[C@H](C)C[C@H](N(C)C)[C@H]2O)[C@](C)(O)C[C@@H](C)C(=O)[C@H](C)[C@H]2OC(=O)O[C@@]21C` [PCM-0215364], for which, under setting [1], the inhibition at 10 µM was -20.8%.
The same measure, in the same setting: as for `CN1CC[C@@H](NC(=O)Nc2ccc(C#N)cc2)C[C@@H]1c1nc2ccccc2[nH]1` [PCM-0215365], the figure is -3.9%.
Take `CN[C@@H](C)C(=O)N[C@H](C(=O)N1CCC[C@H]1c1nc(C(=O)c2ccc(F)cc2)cs1)C1CCCCC1` [PCM-0215366]: the inhibition at 10 µM under setting [1] is -11.6%.
With `C=CC(=O)N1CCN(C(=O)CNc2cc(I)c(Cl)cc2O)CC1` [PCM-0215367], the inhibition at 10 µM under setting [1] was 84.9%.
Turning to `COc1cccc2c1c(O)c(C(=O)N(C)c1ccc(C(F)(F)F)cc1)c(=O)n2C` [PCM-0215368], the inhibition at 10 µM under setting [1] was -27.8%.
`N#C/C(=C\c1ccc(-c2cc(Cl)ccc2Cl)o1)C(=O)Nc1cccc2ncccc12` [PCM-0215369]: under setting [1], the inhibition at 10 µM is 22.4%.
For `CCCCCCCCCCCCCCCc1cccc(O)c1C(=O)O` [PCM-0215370], the inhibition at 10 µM under setting [1] was -19.3%.
Consider `CC1=CC(=O)CC(C)(C)[C@@]1(O)/C=C/C(C)=C\C(=O)O` [PCM-0215371], for which the inhibition at 10 µM under setting [1] worked out at 9.3%.
Consider `Cc1ccc(NC(=O)Nc2cc(C(F)(F)F)ccc2F)cc1Nc1ccc2c(c1)NC(=O)/C2=C\c1ccc[nH]1` [PCM-0215372], for which, under setting [1], the inhibition at 10 µM turned out to be 116%.
As to `CN1CCN(Cc2ccc(NC(=O)Cc3ccc(Oc4cc(NC(=O)C5CC5)ncn4)cc3)cc2C(F)(F)F)CC1` [PCM-0215373], the inhibition at 10 µM under setting [1] was 26.3%.
`CCCC[C@@H](C=O)NC(=O)[C@H](CC(C)C)NC(=O)[C@H](CC(C)C)NC(C)=O` [PCM-0215374] (Ac-Leu-Leu-[Nle]-aldehyde): the inhibition at 10 µM under setting [1] is 18.5%.
For `C[C@@H](Oc1ccc2[nH]nc(/C=C/c3cnn(CCO)c3)c2c1)c1c(Cl)cncc1Cl` [PCM-0215376], the inhibition at 10 µM under setting [1] is 101%.
For `CN1CCN(Cc2ccc(-c3cnc4[nH]cc(-c5ccc6[nH]ccc6c5)c4c3)cc2)CC1` [PCM-0215377], the inhibition at 10 µM under setting [1] was found to be 111%.
On the same count and under the same terms, to `O=C(O)CSc1cc(NS(=O)(=O)c2ccc(Br)cc2)c2ccccc2c1O` [PCM-0215378] belongs 51.7%; to `CC(C)c1cc2c(N3CCN(C4=NCC(C)(C)S4)CC3)ncnc2s1` [PCM-0215379], -7.7%.
Consider `Cc1c(Cl)c(OCC(=O)N2CCN(C)CC2)nc2sc(C(=O)NC3CC3)c(N)c12` [PCM-0215380], for which, under setting [1], the inhibition at 10 µM was -10.8%.
The same measure, in the same setting: as for `N#Cc1ccc(-c2csc(NN=C3CCCC3)n2)cc1` [PCM-0215381], the figure is 43.2%.
In the case of `Cc1cccc(-c2[nH]c(CNc3ccccc3F)nc2-c2ccc3ncnn3c2)n1` [PCM-0215382], the inhibition at 10 µM under setting [1] was -1.5%.
As for `O=C(O)c1ccccc1C(=O)Nc1ccc(-c2ccccc2)cc1` [PCM-0215383], under setting [1], the inhibition at 10 µM came out at 13.9%.
For the molecule `COc1ccc(C2=N[C@H](c3ccc(Cl)cc3)[C@H](c3ccc(Cl)cc3)N2C(=O)N2CCNC(=O)C2)c(OC(C)C)c1` [PCM-0215386], the inhibition at 10 µM under setting [1] was -27.8%.
For `CN1CCN(Cc2ccc(NC(=O)Nc3ccc(Oc4cc(NC(=O)C5CC5)ncn4)cc3)cc2C(F)(F)F)CC1` [PCM-0215388], the inhibition at 10 µM under setting [1] came out at 79.5%.
As for `CCS(=O)(=O)N1CCN(c2ccc(Nc3ncc(C(N)=O)c(NC4CC4)n3)cc2)CC1` [PCM-0215389], the inhibition at 10 µM under setting [1] was 85.5%.
Same read-out and setting: to `CC[C@H]1[C@@H](O)[C@@H]2[C@H](CC[C@]3(C)[C@@H]([C@H](C)CCC(=O)O)CC[C@@H]23)[C@@]2(C)CC[C@@H](O)C[C@@H]12` [PCM-0215390] belongs 2.3%.
